The molecules below were run against T1, recombinant human Myt1 (Homo sapiens, UniProt Q99640) (assay: Myt1 enzymatic assay (ADP-Glo kinase assay, IC50 and % max inhibition)). Conditions: recombinant human Myt1 18 nM, ATP 10 μM.
T1 construct: full length PKMYT1 recombinant human protein expressed in insect cells
T1 sequence (Q99640 1-499): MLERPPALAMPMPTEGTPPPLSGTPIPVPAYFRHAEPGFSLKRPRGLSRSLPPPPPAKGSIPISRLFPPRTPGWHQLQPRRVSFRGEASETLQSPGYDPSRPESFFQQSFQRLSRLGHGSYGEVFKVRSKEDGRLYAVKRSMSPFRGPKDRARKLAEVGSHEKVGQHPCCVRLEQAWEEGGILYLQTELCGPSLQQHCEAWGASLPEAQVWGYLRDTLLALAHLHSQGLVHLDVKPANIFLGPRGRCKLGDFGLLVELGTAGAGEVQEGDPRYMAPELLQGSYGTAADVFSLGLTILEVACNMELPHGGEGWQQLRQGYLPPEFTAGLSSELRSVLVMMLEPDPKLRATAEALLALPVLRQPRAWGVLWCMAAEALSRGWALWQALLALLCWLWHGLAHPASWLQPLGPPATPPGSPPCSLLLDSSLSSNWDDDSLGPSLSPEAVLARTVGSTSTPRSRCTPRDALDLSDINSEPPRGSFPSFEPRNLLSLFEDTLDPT
Type: biochemical
Method: Detection of Myt1 kinase activity utilized a recombinant human Myt1 kinase assay measuring the hydrolysis of ATP using a commercially available ADP-Glo Assay (ADP-Glo™ Kinase Assay from Promega, 10 000 assays, #V9102). […] After this, 5 μL of compounds (diluted in reaction buffer to 0.5% DMSO) was added to the microplate and the plate was spun briefly and incubated at 22° C. for 15 minutes. Ultra-Pure Adenosine Triphosphate (ATP) solution (ADP-Glo kit from Promega) was diluted in reaction buffer and 5 μL was added to the microplate, spun down briefly and incubated for 60 minutes at 30° C. […] After the 60-minute incubation, 15 μL of ADP-Glo reagent was added and the plate was spun briefly and sealed and incubated in the dark for 40 minutes at 22° C. […] Luminescence was read using the Envision (250 ms integration). The IC50 and the % max inhibition were calculated for each inhibitor compound tested.
In the case of C=Cc1nc2c(C(N)=O)c(N)n(-c3c(C)ccc(O)c3C)c2nc1C(F)(F)F [Compound 102, 6-amino-5-(3-hydroxy-2,6-dimethyl-phenyl)-3-(trifluoromethyl)-2-vinyl-pyrrolo[2,3-b]pyrazine-7-carboxamide], the IC50 is reported as 13 nM. Cc1ccc(O)c(Cl)c1-n1c(N)c(C(N)=O)c2nc(C3CC3)cnc21 [Compound 104] showed an IC50 of under 10 nM. For CCCCc1cnc2c(n1)c(C(N)=O)c(N)n2-c1c(Cl)ccc(O)c1C [Compound 107], the IC50 was 12 nM. Molecule Cc1ccc(O)c(C)c1-n1c(N)c(C(N)=O)c2c(C)c(C)cnc21 [Compound 125] has an IC50 of 16 nM. Cc1ccc(O)c(C)c1-n1c(N)c(C(N)=O)c2cc(C(C)(C)O)cnc21 [Compound 131] gave an IC50 of under 10 nM. Cc1ccc(O)c(C)c1-n1c(N)c(C(N)=O)c2cc(C(C)C)cnc21 [Compound 138] gave an IC50 of under 10 nM. For Cc1ccc(O)c(C)c1-n1c(N)c(C(N)=O)c2cc(Br)cnc21 [Compound 141], the IC50 was under 10 nM. Molecule Cc1ccc(O)c(C)c1-n1cc(C(N)=O)c2cc(C3CC3)cnc21 [Compound 143] has an IC50 of under 10 nM. With Cc1ccc(O)cc1-n1c(N)c(C(N)=O)c2nccnc21 [Compound 146] the IC50 was 1420 nM. With Cc1ccc(O)c(C)c1-n1c(N)c(C(N)=O)c2nccnc21 [Compound 147] the IC50 was 55 nM. Work on Cc1ccc(O)cc1-n1c(N)c(C(N)=O)c2ncc(-c3ccccc3)nc21 [Compound 150, 6-amino-5-(5-hydroxy-2-methyl-phenyl)-3-phenyl-pyrrolo[2,3-b]pyrazine-7-carboxamide] yielded an IC50 of 1350 nM. With Cc1ccc(O)cc1-n1c(N)c(C(N)=O)c2ncc(OCc3ccccc3)nc21 [Compound 151] the IC50 was 2750 nM. Cc1ccc(O)cc1-n1c(N)c(C(N)=O)c2ncc(OCc3cccnc3)nc21 [Compound 153, 6-amino-5-(5-hydroxy-2-methyl-phenyl)-3-(3-pyridylmethoxy)pyrrolo[2,3-b]pyrazine-7-carboxamide] showed an IC50 of 3550 nM. For Cc1ccc(O)cc1-n1c(N)c(C(N)=O)c2ncc(OCCN3CCOCC3)nc21 [Compound 154], the IC50 was 6350 nM. Cc1ccc(O)cc1-n1c(N)c(C(N)=O)c2ncc(-c3cn[nH]c3)nc21 [Compound 155] showed an IC50 of 1020 nM. In the case of Cc1ccc(O)cc1-n1c(N)c(C(N)=O)c2ncc(-c3cccc(C(N)=O)c3)nc21 [Compound 156], the IC50 is reported as 465 nM. CC(=O)Nc1cccc(-c2cnc3c(C(N)=O)c(N)n(-c4cc(O)ccc4C)c3n2)c1 [Compound 157] showed an IC50 of 1240 nM. With Cc1ccc(O)cc1-n1c(N)c(C(N)=O)c2ncc(C#Cc3ccccn3)nc21 [Compound 158] the IC50 was 953 nM. Work on Cc1ccc(O)cc1-n1c(N)c(C(N)=O)c2ncc(CCc3ccccn3)nc21 [Compound 159] yielded an IC50 of 1720 nM. With Cc1ccc(O)cc1-n1c(N)c(C(N)=O)c2ncc(C#Cc3cccnc3)nc21 [Compound 160, 6-amino-5-(5-hydroxy-2-methyl-phenyl)-3-[2-(3-pyridyl)ethynyl]pyrrolo[2,3-b]pyrazine-7-carboxamide] the IC50 was 554 nM. For Cc1ccc(O)cc1-n1c(N)c(C(N)=O)c2ncc(CCCN3CCOCC3)nc21 [Compound 161], the IC50 was 671 nM. Cc1ccc(O)cc1-n1c(N)c(C(N)=O)c2ncc(CCc3cccnc3)nc21 [Compound 162, 6-amino-5-(5-hydroxy-2-methyl-phenyl)-3-[2-(3-pyridyl)ethyl]pyrrolo[2,3-b]pyrazine-7-carboxamide] showed an IC50 of 596 nM. Cc1ccc(O)cc1-n1c(N)c(C(N)=O)c2ncc(C#CCN3CCOCC3)nc21 [Compound 163] showed an IC50 of 334 nM. In the case of Cc1cnc2c(C(N)=O)c(N)n(-c3cc(O)ccc3C)c2n1 [Compound 167], the IC50 is reported as 361 nM. For Cc1nc2c(C(N)=O)c(N)n(-c3c(Cl)ccc(O)c3C)c2nc1C [Compound 168], the IC50 was under 10 nM. Molecule Cc1ccc(O)c(C)c1-n1c(N)c(C(N)=O)c2nc(C3CCC3)cnc21 [Compound 173, 6-amino-2-cyclobutyl-5-(3-hydroxy-2,6-dimethyl-phenyl)pyrrolo[2,3-b]pyrazine-7-carboxamide] has an IC50 of under 10 nM. With Cc1ccc(O)c(C)c1-n1c(N)c(C(N)=O)c2nc(C(C)(C)F)cnc21 [Compound 178, 6-amino-2-(1-fluoro-1-methyl-ethyl)-5-(3-hydroxy-2,6-dimethyl-phenyl)pyrrolo[2,3-b]pyrazine-7-carboxamide] the IC50 was under 10 nM. Cc1ccc(O)c(C)c1-n1c(N)c(C(N)=O)c2cc(Br)c(C)nc21 [Compound 187] was tested, and the IC50 was under 10 nM. Molecule Cc1ccc2c(C(N)=O)c(N)n(-c3c(C)ccc(O)c3C)c2n1 [Compound 193] has an IC50 of under 10 nM. In the case of Cc1ccc(O)c(C)c1-n1c(N)c(C(N)=O)c2nc(C3(C(F)(F)F)CC3)cnc21 [Compound 198, 6-amino-5-(3-hydroxy-2,6-dimethyl-phenyl)-2-[1-(trifluoromethyl)cyclopropyl]pyrrolo[2,3-b]pyrazine-7-carboxamide], the IC50 is reported as under 10 nM. With C=C(C)c1cnc2c(n1)c(C(N)=O)c(N)n2-c1c(C)ccc(O)c1C [Compound 202] the IC50 was under 10 nM. Cc1ccc(O)c(C)c1-n1cc(C(N)=O)c2nc(C)c(C)nc21 [Compound 209, 5-(3-hydroxy-2,6-dimethyl-phenyl)-2,3-dimethyl-pyrrolo[2,3-b]pyrazine-7-carboxamide] showed an IC50 of 28 nM. Cc1ccc(O)cc1-n1c(N)c(C(N)=O)c2ncc(C(F)(F)F)cc21 [Compound 212, 2-amino-1-(5-hydroxy-2-methyl-phenyl)-6-(trifluoromethyl)pyrrolo[3,2-b]pyridine-3-carboxamide] was tested, and the IC50 was 3440 nM. Molecule Cc1ccc(O)cc1-n1c(N)c(C(N)=O)c2nc(C(F)(F)F)ccc21 [Compound 213] has an IC50 of 195 nM. Work on Cc1ccc(O)c(C)c1-n1c(N)c(C(N)=O)c2nc(-c3nccs3)c(C#CC3CC3)nc21 [Compound 214, 6-amino-3-(2-cyclopropylethynyl)-5-(3-hydroxy-2,6-dimethyl-phenyl)-2-thiazol-2-yl-pyrrolo[2,3-b]pyrazine-7-carboxamide] yielded an IC50 of 136 nM. Molecule Cc1ccc(O)c(C)c1-n1c(N)c(C(N)=O)c2nc(C#CCN3CCOCC3)c(C#CCN3CCOCC3)nc21 [Compound 215] has an IC50 of 24 nM. In the case of Cc1ccc(O)c(C)c1-n1c(N)c(C(N)=O)c2nc(-c3nccs3)c(C#CCN3CCOCC3)nc21 [Compound 216], the IC50 is reported as 76 nM. With Cc1ccc(O)c(C)c1-n1c(N)c(C(N)=O)c2nc(C#CCN3CCOCC3)cnc21 [Compound 217] the IC50 was 168 nM. Molecule Cc1ccc(O)c(C)c1-n1c(N)c(C(N)=O)c2ncc(C#CCN3CCOCC3)nc21 [Compound 218] has an IC50 of 22 nM. In the case of Cc1ccc(O)c(C)c1-n1c(N)c(C(N)=O)c2nc(C#N)cnc21 [Compound 219, 6-amino-2-cyano-5-(3-hydroxy-2,6-dimethyl-phenyl)pyrrolo[2,3-b]pyrazine-7-carboxamide], the IC50 is reported as 46 nM. Molecule Cc1ccc(O)c(C)c1-n1c(N)c(C(N)=O)c2nc(C(N)=O)cnc21 [Compound 220, 6-amino-5-(3-hydroxy-2,6-dimethyl-phenyl)pyrrolo[2,3-b]pyrazine-2,7-dicarboxamide] has an IC50 of under 10 nM. Cc1ccc(O)c(C)c1-n1c(N)c(C(N)=O)c2cc(C(F)(F)F)cnc21 [Compound 221, 2-amino-1-(3-hydroxy-2,6-dimethyl-phenyl)-5-(trifluoromethyl)pyrrolo[2,3-b]pyridine-3-carboxamide] was tested, and the IC50 was 81 nM. Molecule Cc1ccc(O)c(C)c1-n1c(N)c(C(N)=O)c2ncc(C#CCC3CCOCC3)nc21 [Compound 222] has an IC50 of under 10 nM. Molecule Cc1ccc(O)c(C)c1-n1c(N)c(C(N)=O)c2ncc(C#CC(C)(C)NS(C)(=O)=O)nc21 [Compound 223] has an IC50 of 15 nM. Work on Cc1ccc(O)c(C)c1-n1c(N)c(C(N)=O)c2ncc(C#CC3CCCCO3)nc21 (stereo not shown) [Compound 224] yielded an IC50 of 13 nM. Cc1ccc(O)c(C)c1-n1c(N)c(C(N)=O)c2ncc(C#CC3CCOCC3)nc21 [Compound 225] gave an IC50 of 34 nM. Cc1ccc(O)c(C)c1-n1c(N)c(C(N)=O)c2ncc(C#CCN(C)C)nc21 [Compound 226] gave an IC50 of 12 nM. Molecule Cc1ccc(O)c(C)c1-n1c(N)c(C(N)=O)c2ncc(C#Cc3ccccn3)nc21 [Compound 227] has an IC50 of 50 nM. With Cc1ccc(O)c(C)c1-n1c(N)c(C(N)=O)c2ncc(C#CC3CC3)nc21 [Compound 228] the IC50 was 21 nM. In the case of Cc1ccc(O)c(C)c1-n1c(N)c(C(N)=O)c2ncc(C#C[C@H](C)O)nc21 [Compound 229], the IC50 is reported as 52 nM. In the case of Cc1ccc(O)c(C)c1-n1c(N)c(C(N)=O)c2ncc(C#Cc3ccccc3)nc21 [Compound 230], the IC50 is reported as 368 nM. Work on Cc1ccc(O)c(C)c1-n1c(N)c(C(N)=O)c2ncc(C#CC3(O)CCOCC3)nc21 [Compound 231] yielded an IC50 of under 10 nM. In the case of Cc1ccc(O)c(C)c1-n1c(N)c(C(N)=O)c2ncc(C#CC3(C)COC3)nc21 [Compound 232], the IC50 is reported as 11 nM. With Cc1ccc(O)c(C)c1-n1c(N)c(C(N)=O)c2ncc(C#C[C@@H]3OCC[C@@H]3Cl)nc21 [Compound 233] the IC50 was 10 nM. In the case of Cc1ccc(O)c(C)c1-n1c(N)c(C(N)=O)c2ncc(C#C[C@@H]3COC[C@H]3O)nc21 [Compound 234], the IC50 is reported as 14 nM.

Source: patent US20230151014A1 (Repare Therapeutics Inc., priority 2020, published 2023)
